Laboratory results reported in PubChem BioAssay AID1963831 (Molecular Pharmacology Branch, DTP, NCI, 2024).
Where “and” joins values, the source holds several entries; their conditions need not be identical. Equal values may be shown once.

Tested on: 889142-216-R-J1-PDC complex spheroid viability
Test: Anticancer human tumor 889142-216-R-J1-PDC patient-derived bladder carcinoma cell line growth inhibition [POLQ]
Conditions: for viability, T/C: stronger effect = lower value
Experimental: Multicellular complex tumor spheroid response to Polymerase (POL) inhibitors (novobiocin, ART-558, RP6685) in combination with a variety of drugs and investigational agents in selected tumor cell lines
The POL inhibitors (novobiocin, ART-558, and RP6685) were evaluated both individually and in combination with standard of care and investigational anticancer small molecules within a complex spheroid model of solid tumors. . Complex spheroids include a stromal component modeled by human endothelial cells (HUVEC) and fibroblasts modeled by human mesenchymal stem cells (MSCs). The concentration ranges selected for each drug and investigational agent were based upon clinically achievable concentrations if the clinical Cmax of the agent was known.
Compounds. The drugs and investigational agents: novobiocin (NSC847541), ART-558 (NSC835418), RP-6685 (NSC848927), peposertib (NSC802822), ceralasertib (NSC780249), elimusertib (NSC800525), camonsertib (NSC841442), AZD-1390 (NSC803789), olaparib (NSC753686), talazoparib (NSC767125), rucaparib (NSC756644), sotorasib (NSC818433), MRTX-1133 (NSC836407), SN-38 (NSC673596), topotecan (NSC609699), epotoside (NSC141540), doxorubicin (NSC123127), gemcitabine (NSC613327), 5-fluorouracil (NSC19893), paclitaxel (NSC125973), vemurafenib (NSC761431), MSA-2 (NSC828583), SN-011 (NSC837082), adavosertib (NSC754352), prexasertib (NSC758257), carboplatin (NSC241240) and oxaliplatin (NSC266046), were obtained from the National Cancer Institute (NCI) Developmental Therapeutics Program Chemical Repository (21). The FDA-approved anticancer drug set is available from the Developmental Therapeutics Program at https://dtp.cancer.gov/organization/dscb/obtaining/. […] The stock solutions were prepared in dimethyl sulfoxide (DMSO, Sigma-Aldrich, St. Louis, MO, cat. D2650), except for the platinum compounds which were prepared in saline (Quality Biological, Gaithersburg, MD, cat. 114-055-101), at 800-fold the tested concentration and stored at -70 degrees C prior to their use. All drugs and investigational agents were tested over a range starting from a high concentration at or near the clinical Cmax and decreasing in half-log increments. If the clinical Cmax for an agent had not been determined, the highest concentration tested was 10 microM, except for SN-38, which was tested at a high concentration of 1 microM.
Cell Culture. All cells were maintained in an incubator at 37 degrees C and 5% CO2 with 95% humidity. The PDC lines were cultured according to standard operating procedures established by the NCI PDMR (https://pdmr.cancer.gov). Table 3 of the manuscript, lists the cell lines along with the number of the three cell types plated to form the mct-spheroids and media for tumor cell growth. After thawing, all PDC lines, except 997537-175-T-J1-PDC and 415267-285-R-J2-PDC, were cultured in Matrigel-coated flasks prepared with a working solution of 1X Ham's F-12 nutrient mix, without supplementation (Thermo Fisher Scientific, cat. 11765054), 100 U/mL penicillin-streptomycin (Thermo Fisher Scientific, cat. 15140122), and 2.5% Matrigel (Corning Inc., Corning, NY, cat. 354248) for the first three passages. The two PDC lines 997537-175-T-J1-PDC and 415267-285-R-J2-PDC were cultured on uncoated flasks. The 857933-349-R-J2-PDC line was cultured in 6C/Colon 1B media containing advanced DMEM/F-12 (Thermo Fisher Scientific, cat. 12634028), 10 mM HEPES (Thermo Fisher Scientific, cat. 15630080), 1X GlutaMAX supplement (Thermo Fisher Scientific, cat. 35050061), 0.1 mg/mL primocin (InvivoGen, San Diego, CA, cat. ant-pm-2), 10% defined fetal bovine serum, heat inactivated (HyClone Laboratories Inc., Logan, UT, cat. SH30070.03HI), 50% L-WRN conditioned media (ATCC, cat. CRL-3276), 1.25 mM N-Acetyl-L-cysteine (Sigma-Aldrich, cat. A9165), 10 mM nicotinamide (Sigma-Aldrich, cat. N0636), 1X B-27 supplement (Thermo Fisher Scientific, cat. 17504044), 1X N-2 supplement (Thermo Fisher Scientific, cat. […]

[1] = compound alone, run of 01/19/2024
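Also: spheroids exposed to compounds for seven days.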
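For viability, T/C in this document: 100% = DMSO vehicle control viability.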

## CCc1cc2c(N3CCc4c(cc(Cn5ccnc5)cc4-c4cn(C)nc4C(F)(F)F)C3=O)ccnc2c(OC)n1
Compound 0.0316 µM
  viability, T/C: 127% and 103% and 138%
Compound 0.1 µM
  viability, T/C: 115% and 101% and 105%
Compound 0.316 µM
  viability, T/C: 123% and 106% (2×)
Compound 1 µM
  viability, T/C: 116% and 126% and 105%
Compound 3.16 µM
  viability, T/C: 116% and 111% and 93.8%
Compound 10 µM
  viability, T/C: 83.1% and 86.1% and 71.5%
Curve of compound
  IC50: > 10 µM

## Cc1cccc(N(C)C(=O)C2C(O)CCN2c2nc(C)cc(C(F)(F)F)c2C#N)c1 (centres undefined)
Compound 3.16 µM
  viability, T/C: 94.3% [middle of 13 runs]
Compound alone, run of 01/08/2024
  IC50: > 10 µM
[1]
  IC50: > 10 µM

## CNCc1ccc(-c2[nH]c3cc(F)cc4c3c2CCNC4=O)cc1
Compound 0.0316 µM
  viability, T/C: 113% and 99.8% and 88.3%
Compound 0.1 µM
  viability, T/C: 91.7% and 96.3% and 114%
Compound 0.316 µM
  viability, T/C: 86% and 112% and 90.9%
Compound 1 µM
  viability, T/C: 88% and 96.9% and 104%
Compound 3.16 µM
  viability, T/C: 87.2% and 83.7% and 97.5%
Compound 10 µM
  viability, T/C: 76.9% and 70.9% and 70.5%
Curve of compound
  IC50: > 10 µM

## CC(C)n1c(=O)n(C)c2cnc3cc(F)c(-c4ccc(OCCCN5CCCCC5)nc4)cc3c21 + Cc1cccc(N(C)C(=O)C2C(O)CCN2c2nc(C)cc(C(F)(F)F)c2C#N)c1
Curve of first compound, second compound 0.0316 µM
  IC50: 3.93 µM
Curve of first compound, second compound 0.1 µM
  IC50: 3.63 µM
Curve of first compound, second compound 0.316 µM
  IC50: 3.68 µM
Curve of first compound, second compound 1 µM
  IC50: 3.73 µM
Curve of first compound, second compound 3.16 µM
  IC50: 4.43 µM
Curve of first compound, second compound 10 µM
  IC50: 2.19 µM
Second compound 0.0316 µM, first compound 0.0316 µM
  viability, T/C: 83.1%
Second compound 0.0316 µM, first compound 0.1 µM
  viability, T/C: 75.4%
Second compound 0.0316 µM, first compound 0.316 µM
  viability, T/C: 89.5%
Second compound 0.0316 µM, first compound 1 µM
  viability, T/C: 84.4%
Second compound 0.0316 µM, first compound 3.16 µM
  viability, T/C: 58.1%
Second compound 0.0316 µM, first compound 10 µM
  viability, T/C: 14.7%
Second compound 0.1 µM, first compound 0.0316 µM
  viability, T/C: 87.9%
Second compound 0.1 µM, first compound 0.1 µM
  viability, T/C: 78.6%
Second compound 0.1 µM, first compound 0.316 µM
  viability, T/C: 77%
Second compound 0.1 µM, first compound 1 µM
  viability, T/C: 66.8%
Second compound 0.1 µM, first compound 3.16 µM
  viability, T/C: 59.3%
Second compound 0.1 µM, first compound 10 µM
  viability, T/C: 15.5%
Second compound 0.316 µM, first compound 0.0316 µM
  viability, T/C: 88.9%
Second compound 0.316 µM, first compound 0.1 µM
  viability, T/C: 82.6%
Second compound 0.316 µM, first compound 0.316 µM
  viability, T/C: 70.3%
Second compound 0.316 µM, first compound 1 µM
  viability, T/C: 81.6%
Second compound 0.316 µM, first compound 3.16 µM
  viability, T/C: 55.6%
Second compound 0.316 µM, first compound 10 µM
  viability, T/C: 12.8%
Second compound 1 µM, first compound 0.0316 µM
  viability, T/C: 75.5%
Second compound 1 µM, first compound 0.1 µM
  viability, T/C: 97.5%
Second compound 1 µM, first compound 0.316 µM
  viability, T/C: 101%
Second compound 1 µM, first compound 1 µM
  viability, T/C: 75.9%
Second compound 1 µM, first compound 3.16 µM
  viability, T/C: 57%
Second compound 1 µM, first compound 10 µM
  viability, T/C: 15.5%
Second compound 3.16 µM, first compound 0.0316 µM
  viability, T/C: 80.6%
Second compound 3.16 µM, first compound 0.1 µM
  viability, T/C: 87.9%
Second compound 3.16 µM, first compound 0.316 µM
  viability, T/C: 77.5%
Second compound 3.16 µM, first compound 1 µM
  viability, T/C: 98.9%
Second compound 3.16 µM, first compound 3.16 µM
  viability, T/C: 65.5%
Second compound 3.16 µM, first compound 10 µM
  viability, T/C: 12.7%
Second compound 10 µM, first compound 0.0316 µM
  viability, T/C: 70%
Second compound 10 µM, first compound 0.1 µM
  viability, T/C: 66.3%
Second compound 10 µM, first compound 0.316 µM
  viability, T/C: 68.5%
Second compound 10 µM, first compound 1 µM
  viability, T/C: 52.7%
Second compound 10 µM, first compound 3.16 µM
  viability, T/C: 49.5%
Second compound 10 µM, first compound 10 µM
  viability, T/C: 12%

## CCc1cc2c(N3CCc4c(cc(Cn5ccnc5)cc4-c4cn(C)nc4C(F)(F)F)C3=O)cc(C)nc2c(OC)n1
Compound 0.0316 µM
  viability, T/C: 103% and 102% and 111%
Compound 0.1 µM
  viability, T/C: 116% and 114% and 108%
Compound 0.316 µM
  viability, T/C: 123% and 119% (2×)
Compound 1 µM
  viability, T/C: 132% and 112% and 96.6%
Compound 3.16 µM
  viability, T/C: 118% and 106% and 84.9%
Compound 10 µM
  viability, T/C: 84.3% and 82.2% and 71.1%
Curve of compound
  IC50: > 10 µM

## Nc1ccc(C#CCN(C(=O)Cc2ncc(C(F)(F)F)cc2C(F)(F)F)c2ccc(F)cc2)nn1
Compound 0.1 µM
  viability, T/C: 95.3% [middle of 13 runs]
Compound 10 µM
  viability, T/C: 102% [middle of 13 runs]
[1]
  IC50: > 10 µM
